Source: ChEMBL document CHEMBL4837265 (ACS Med Chem Lett, 2021)
Active and inactive are the calls of the source. No cut-off for these calls is given here.

Assays:
Format in all cases: cell-based
Glucocorticoid receptor [1] = molecular target: T1, Glucocorticoid receptor (Rattus norvegicus, UniProt P06536); assay: Agonist activity at glucocorticoid receptor in rat INS-1 832/13 cells transfected with 3XGRE-promoter luciferase plasmid construct assessed as induction of receptor transactivation by luciferase reporter gene assay
T1 sequence (P06536 whole entry): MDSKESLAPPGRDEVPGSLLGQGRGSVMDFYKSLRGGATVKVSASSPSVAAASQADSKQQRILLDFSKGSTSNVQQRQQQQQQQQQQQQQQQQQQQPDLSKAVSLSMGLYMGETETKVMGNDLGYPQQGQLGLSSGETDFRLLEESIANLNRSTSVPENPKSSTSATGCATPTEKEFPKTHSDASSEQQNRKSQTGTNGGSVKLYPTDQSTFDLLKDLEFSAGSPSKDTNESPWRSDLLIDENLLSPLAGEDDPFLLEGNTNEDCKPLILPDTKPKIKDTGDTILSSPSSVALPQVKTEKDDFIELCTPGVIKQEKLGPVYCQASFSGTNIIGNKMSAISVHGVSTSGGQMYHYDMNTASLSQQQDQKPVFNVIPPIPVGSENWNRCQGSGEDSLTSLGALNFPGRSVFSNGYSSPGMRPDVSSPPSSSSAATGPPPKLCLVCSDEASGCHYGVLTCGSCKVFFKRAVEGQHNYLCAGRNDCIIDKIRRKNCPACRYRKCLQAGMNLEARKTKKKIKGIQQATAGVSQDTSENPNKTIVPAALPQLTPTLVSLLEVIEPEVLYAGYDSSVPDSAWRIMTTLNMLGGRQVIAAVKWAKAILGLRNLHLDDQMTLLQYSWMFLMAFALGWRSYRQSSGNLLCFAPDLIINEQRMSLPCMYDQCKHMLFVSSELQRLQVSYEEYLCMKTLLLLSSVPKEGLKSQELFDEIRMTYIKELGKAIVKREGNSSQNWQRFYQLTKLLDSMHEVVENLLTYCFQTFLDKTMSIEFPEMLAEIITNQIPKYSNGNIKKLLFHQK

Glucocorticoid receptor [2] = molecular target: T1, Glucocorticoid receptor; assay: Agonist activity at glucocorticoid receptor in rat INS-1 832/13 cells transfected with CCL2-promoter luciferase plasmid construct assessed as reduction in IL-1 beta induced inflammation by luciferase reporter gene assay
[3] = molecular target: T2, Glucocorticoid receptor (Rattus norvegicus) (UniProt P06536); assay: Agonist activity at glucocorticoid receptor in rat INS-1 832/13 cells assessed as inhibition of glucose-stimulated insulin secretion at 100 nM incubated for 18 hrs by ELISA
T2 sequence (whole entry): T1 sequence (P06536 whole entry)

COc1cc([C@H](O)[C@H]2CCCC3=Cc4c(cnn4-c4ccc(C)cc4)C[C@@]32C)cc(F)c1F
EC50 (Glucocorticoid receptor [1]): 100000 nM | IC50 (Glucocorticoid receptor [2]): 158 nM

COc1ccc(-n2ncc3c2C=C2CCC[C@H](C(C)(O)c4ccsc4)[C@@]2(C)C3)cc1 (single isomer, unassigned)
EC50 (Glucocorticoid receptor [1]): 10000 nM | IC50 (Glucocorticoid receptor [2]): 1580 nM

Cc1ccc(-n2ncc3c2C=C2CCC[C@H](C(C)(O)c4ccccc4)[C@@]2(C)C3)cc1 (single isomer, unassigned)
EC50 (Glucocorticoid receptor [1]): 1260 nM | IC50 (Glucocorticoid receptor [2]): 31.6 nM

COc1ccc(-n2ncc3c2C=C2CCC[C@H](C(C)(O)c4ccc(F)cc4)[C@@]2(C)C3)cc1 (single isomer, unassigned)
EC50 (Glucocorticoid receptor [1]): 126 nM | IC50 (Glucocorticoid receptor [2]): 251 nM

Cc1ccc(-n2ncc3c2C=C2CCC[C@H]([C@@H](O)c4ccccc4)[C@@]2(C)C3)cc1
EC50 (Glucocorticoid receptor [1]): 10000 nM | IC50 (Glucocorticoid receptor [2]): 398 nM

COc1ccc(-n2ncc3c2C=C2CCC[C@H](C(C)(O)c4ccccc4)[C@@]2(C)C3)cc1 (single isomer, unassigned)
EC50 (Glucocorticoid receptor [1]): 5010 nM | IC50 (Glucocorticoid receptor [2]): 501 nM

COc1ccc(-n2ncc3c2C=C2CCC[C@H]([C@H](C)O)[C@@]2(C)C3)cc1
EC50 (Glucocorticoid receptor [1]): 251 nM | IC50 (Glucocorticoid receptor [2]): 0.158 nM

CC(C)(C)[C@H](O)[C@H]1CCCC2=Cc3c(cnn3-c3ccc(F)cc3)C[C@@]21C
EC50 (Glucocorticoid receptor [1]): 794 nM | IC50 (Glucocorticoid receptor [2]): 0.251 nM

COc1ccc(-n2ncc3c2C=C2CCC[C@H](C(C)(O)c4cc(F)c(F)c(OC)c4)[C@@]2(C)C3)cc1 (single isomer, unassigned)
EC50 (Glucocorticoid receptor [1]): 10000 nM | IC50 (Glucocorticoid receptor [2]): 1260 nM

COc1ccc(-n2ncc3c2C=C2CCC[C@H](C(C)(C)O)[C@@]2(C)C3)cc1
EC50 (Glucocorticoid receptor [1]): 79.4 nM | IC50 (Glucocorticoid receptor [2]): 2510 nM

C[C@]12Cc3cnn(-c4ccc(F)cc4)c3C=C1CCC[C@@H]2[C@@H](O)CC#N
EC50 (Glucocorticoid receptor [1]): 2510 nM | IC50 (Glucocorticoid receptor [2]): 1580 nM

COc1cc([C@H](O)[C@H]2CCCC3=Cc4c(cnn4-c4ccc(F)cc4)C[C@@]32C)cc(F)c1F
EC50 (Glucocorticoid receptor [1]): 63.1 nM | IC50 (Glucocorticoid receptor [2]): 15.8 nM

C[C@]12Cc3cnn(-c4ccc(F)cc4)c3C=C1CCC[C@@H]2[C@@H](O)c1ccccc1
EC50 (Glucocorticoid receptor [1]): 100 nM | inhibition [3]: inactive | IC50 (Glucocorticoid receptor [2]): 39.8 nM

COc1cc([C@@](C)(O)[C@H]2CCCC3=Cc4c(cnn4-c4ccc(F)cc4)C[C@@]32C)cc(F)c1F
EC50 (Glucocorticoid receptor [1]): 6.31 nM | IC50 (Glucocorticoid receptor [2]): 2 nM

C[C@H](O)[C@H]1CCCC2=Cc3c(cnn3-c3ccc(F)cc3)C[C@@]21C
EC50 (Glucocorticoid receptor [1]): 63.1 nM | inhibition [3]: inactive | IC50 (Glucocorticoid receptor [2]): 6.31 nM

Cc1ccc(-n2ncc3c2C=C2CCC[C@H](C(C)(C)O)[C@@]2(C)C3)cc1
EC50 (Glucocorticoid receptor [1]): 0.398 nM | IC50 (Glucocorticoid receptor [2]): 63.1 nM

C[C@]12Cc3cnn(-c4ccc(F)cc4)c3C=C1CCC[C@@H]2[C@](C)(O)c1ccccc1
EC50 (Glucocorticoid receptor [1]): 3.98 nM | inhibition ([3]; filed as agonist): Active | IC50 (Glucocorticoid receptor [2]): 7.94 nM

CC(C)(O)[C@H]1CCCC2=Cc3c(cnn3-c3ccc(F)cc3)C[C@@]21C
EC50 (Glucocorticoid receptor [1]): 63.1 nM | inhibition [3]: inactive | IC50 (Glucocorticoid receptor [2]): 39.8 nM

Cc1ccc(-n2ncc3c2C=C2CCC[C@H](C(C)(O)c4ccc(F)cc4)[C@@]2(C)C3)cc1 (single isomer, unassigned)
EC50 (Glucocorticoid receptor [1]): 316 nM | IC50 (Glucocorticoid receptor [2]): 631 nM

C[C@]12Cc3cnn(-c4ccc(F)cc4)c3C=C1CCC[C@@H]2[C@](C)(O)c1ccc(F)cc1
EC50 (Glucocorticoid receptor [1]): 15.8 nM | IC50 (Glucocorticoid receptor [2]): 5.01 nM

Cc1ccc(-n2ncc3c2C=C2CCC[C@H](C(C)(O)c4ccsc4)[C@@]2(C)C3)cc1 (single isomer, unassigned)
EC50 (Glucocorticoid receptor [1]): 1580 nM | IC50 (Glucocorticoid receptor [2]): 100 nM

C[C@]12Cc3cnn(-c4ccc(F)cc4)c3C=C1CCC[C@@H]2[C@@H](O)c1ccsc1
EC50 (Glucocorticoid receptor [1]): 126 nM | IC50 (Glucocorticoid receptor [2]): 5.01 nM

COc1ccc(-n2ncc3c2C=C2CCC[C@H]([C@@H](O)c4ccccc4)[C@@]2(C)C3)cc1
EC50 (Glucocorticoid receptor [1]): 10000 nM | IC50 (Glucocorticoid receptor [2]): 1260 nM

COc1ccc(-n2ncc3c2C=C2CCC[C@H]([C@@H](O)c4ccsc4)[C@@]2(C)C3)cc1
EC50 (Glucocorticoid receptor [1]): 10000 nM | IC50 (Glucocorticoid receptor [2]): 501 nM

COc1ccc(-n2ncc3c2C=C2CCC[C@H]([C@@H](O)c4ccc(F)cc4)[C@@]2(C)C3)cc1
EC50 (Glucocorticoid receptor [1]): 15800 nM | IC50 (Glucocorticoid receptor [2]): 79.4 nM

Cc1ccc(-n2ncc3c2C=C2CCC[C@H]([C@@H](O)c4ccsc4)[C@@]2(C)C3)cc1
EC50 (Glucocorticoid receptor [1]): 10000 nM | IC50 (Glucocorticoid receptor [2]): 39.8 nM

Cc1ccc(-n2ncc3c2C=C2CCC[C@H]([C@@H](O)c4ccc(F)cc4)[C@@]2(C)C3)cc1
EC50 (Glucocorticoid receptor [1]): 31600 nM | IC50 (Glucocorticoid receptor [2]): 251 nM

Cc1ccc(-n2ncc3c2C=C2CCC[C@H]([C@H](C)O)[C@@]2(C)C3)cc1
EC50 (Glucocorticoid receptor [1]): 1580 nM | IC50 (Glucocorticoid receptor [2]): 0.2 nM
